The test system of one assay is NF-κB pathway. Nature of the assay: TNF-α assay (THP-1 cells differentiated to macrophages with IFN-γ, NF-κB pathway activated with LPS; ELISA). In kind it is cell-based, Human. As to conditions: Homo sapiens, THP-1, THP-1 macrophages, compound 30 min, 50 ng/mL LPS 3 hours. The method, boiled down:
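TNF-α release measured by ELISA after 3 h stimulation with 50 ng/mL LPS, following 30 min compound pretreatment (37 °C, no FBS). Cells were THP-1 macrophages primed with IFN-γ 25 ng/mL for 24 h. IC50 derived by logistic curve fit.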
(An ELISA detects its analyte on a solid surface through an enzyme-linked reagent.)

The next assay has as its target T1, NLRP3 inflammasome (Homo sapiens, UniProt Q96P20).
T1 construct: IL-1beta HTRF
Nature of the assay: IL-1β TR-FRET assay (THP-1 cells differentiated to macrophages with IFN-γ, LPS primed, ATP activated; HTRF). In kind it is cell-based. The following applies: THP-1 macrophages, 50 ng/mL LPS priming, compound 30 min, 20 mM ATP 2 hours. The method, boiled down: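 IL-1β release was read by HTRF after 16–24 h antibody incubation at room temperature, using supernatants from THP-1-derived macrophages (IFN-γ 25 ng/mL, LPS 50 ng/mL priming) given compound 30 min and then 20 mM ATP for 2 h. % inhibition versus concentration was fitted logistically for IC50.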
A general note: TR-FRET usually uses a lanthanide donor and a delayed reading to cut background.

pIC50: −log10 of the molar value. A value given as a limit tells only on which side of the number the result lay.

In general, pIC50 refers to the IC50 on a negative log10 scale, so that one unit is a factor of ten. A lower pIC50 goes with a high IC50.

T1 sequence (Q96P20 whole entry): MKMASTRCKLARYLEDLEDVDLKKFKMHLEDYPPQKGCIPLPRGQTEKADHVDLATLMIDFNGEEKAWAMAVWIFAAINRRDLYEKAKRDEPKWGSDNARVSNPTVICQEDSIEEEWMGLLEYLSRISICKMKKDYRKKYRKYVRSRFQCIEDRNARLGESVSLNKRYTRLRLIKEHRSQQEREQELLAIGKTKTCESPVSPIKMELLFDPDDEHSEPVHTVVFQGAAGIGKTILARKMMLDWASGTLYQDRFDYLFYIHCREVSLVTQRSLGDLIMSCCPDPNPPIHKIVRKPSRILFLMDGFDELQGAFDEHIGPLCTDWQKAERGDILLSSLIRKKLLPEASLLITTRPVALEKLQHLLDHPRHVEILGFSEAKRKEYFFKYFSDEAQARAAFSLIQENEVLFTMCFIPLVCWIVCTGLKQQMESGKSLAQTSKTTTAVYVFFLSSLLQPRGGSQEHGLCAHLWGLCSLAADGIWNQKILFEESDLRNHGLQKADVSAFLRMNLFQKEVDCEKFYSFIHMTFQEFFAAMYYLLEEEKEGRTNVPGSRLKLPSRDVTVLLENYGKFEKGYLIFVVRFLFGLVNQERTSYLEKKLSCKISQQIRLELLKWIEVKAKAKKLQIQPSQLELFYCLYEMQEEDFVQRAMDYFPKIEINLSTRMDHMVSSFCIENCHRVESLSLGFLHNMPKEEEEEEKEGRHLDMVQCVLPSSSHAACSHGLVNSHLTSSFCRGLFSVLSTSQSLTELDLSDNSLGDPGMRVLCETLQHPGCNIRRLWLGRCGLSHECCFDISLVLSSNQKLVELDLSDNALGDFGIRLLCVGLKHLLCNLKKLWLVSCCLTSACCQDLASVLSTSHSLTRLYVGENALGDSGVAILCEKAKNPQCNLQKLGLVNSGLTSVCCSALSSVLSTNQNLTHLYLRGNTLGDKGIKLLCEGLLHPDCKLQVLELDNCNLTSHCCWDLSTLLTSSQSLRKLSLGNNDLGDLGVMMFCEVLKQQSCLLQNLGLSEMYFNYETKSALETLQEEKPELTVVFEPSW

For `Cc1cc(C)c(-n2cc3sc(NCCN(C)C)nc3n2)c(O)c1` [Example 53, 2-(5-{[2-(dimethylamino)ethyl]amino}-2H-pyrazolo[3,4-d][1,3]thiazol-2-yl)-3,5-dimethylphenol], the pIC50 with NF-κB pathway was less than 4.52; at NLRP3 inflammasome it was 6.17.
`Cc1cc(C)c(-n2cc3sc(NCCN4CCOCC4)nc3n2)c(O)c1` [Example 54, 3,5-dimethyl-2-(5-{[2-(morpholin-4-yl)ethyl]amino}-2H-pyrazolo[3,4-d][1,3]thiazol-2-yl)phenol]: the pIC50 was less than 4.52 in the assay on NF-κB pathway and 5.96 on NLRP3 inflammasome.
The like results for `Cc1cc(C)c(-n2cc3sc(NCCC(C)(C)O)nc3n2)c(O)c1` [Example 55, 2-{5-[(3-hydroxy-3-methylbutyl)amino]-2H-pyrazolo[3,4-d][1,3]thiazol-2-yl}-3,5-dimethylphenol] were, in that order, less than 5.00 and 5.85.
Regarding `CC(=O)NCCCNc1nc2nn(-c3c(C)cc(C)cc3O)cc2s1` [Example 56, N-(3-{[2-(2-hydroxy-4,6-dimethylphenyl)-2H-pyrazolo[3,4-d][1,3]thiazol-5-yl]amino}propyl) acetamide], the negative-log IC50 (pIC50) in the assay with NF-κB pathway was less than 4.52; against NLRP3 inflammasome it was 6.64.
For `Cc1cc(C)c(-n2cc3sc(NC45CCC(O)(CC4)C5)nc3n2)c(O)c1` [Example 57, 4-{[2-(2-hydroxy-4,6-dimethylphenyl)-2H-pyrazolo[3,4-d][1,3]thiazol-5-yl]amino}bicyclo[2.2.1]heptan-1-ol], in that order: less than 5.00 and 6.89.
Turning to `Cc1cnc(-n2nc3nc(N[C@@H]4CCCN(C)C4)sc3c2C)c(O)c1` [Example 58, 5-methyl-2-(3-methyl-5-{[(3R)-1-methylpiperidin-3-yl]amino}-2H-pyrazolo[3,4-d][1,3]thiazol-2-yl)pyridin-3-ol], the results for the pIC50 in the assay with NF-κB pathway and at NLRP3 inflammasome were less than 4.52 and 5.59, respectively.
Take `CCc1cc(O)c(-n2cc3sc(N[C@@H]4C[C@@H](F)CN(C)C4)nc3n2)c(CC)c1` [Example 59, 3,5-diethyl-2-(5-{[(3R,5R)-5-fluoro-1-methylpiperidin-3-yl]amino}-2H-pyrazolo[3,4-d][1,3]thiazol-2-yl)phenol]: the negative logarithm of the IC50 (pIC50) in the assay with NF-κB pathway was less than 4.52; on NLRP3 inflammasome, 7.64.
In the case of `CCc1cc(C)c(-n2cc3sc(N[C@@H]4C[C@@H](F)CN(C)C4)nc3n2)c(O)c1` [Example 60, 5-ethyl-2-(5-{[(3R,5R)-5-fluoro-1-methylpiperidin-3-yl]amino}-2H-pyrazolo[3,4-d][1,3]thiazol-2-yl)-3-methylphenol], the pIC50 is less than 4.52 with NF-κB pathway and 7.21 at NLRP3 inflammasome.
Regarding `COCCN(C)c1nc2nn(-c3c(C)cc(C)cc3O)cc2s1` [Example 61, 2-{5-[(2-methoxyethyl)(methyl)amino]-2H-pyrazolo[3,4-d][1,3]thiazol-2-yl}-3,5-dimethylphenol], the results for the pIC50 in the assay with NF-κB pathway and on NLRP3 inflammasome were less than 5.00 and 5.70, respectively.
The like results for `Cc1cc(C)c(-n2cc3sc(N[C@H]4CNC[C@H](F)C4)nc3n2)c(O)c1` [Example 62, 2-(5-{[(3R,5R)-5-fluoropiperidin-3-yl]amino}-2H-pyrazolo[3,4-d][1,3]thiazol-2-yl)-3,5-dimethylphenol] were, in that order, less than 5.00 and 6.92.
Regarding `Cc1cnc(-n2cc3sc(N[C@@H]4CCCN(C)C4)nc3n2)c(O)c1` [Example 63, 5-methyl-2-(5-{[(3R)-1-methylpiperidin-3-yl]amino}-2H-pyrazolo[3,4-d][1,3]thiazol-2-yl)pyridin-3-ol], the pIC50 in the assay on NF-κB pathway was less than 5.00; on NLRP3 inflammasome, 5.47.
With `Cc1cc(O)c(-n2cc3sc(NC[C@@H](C)O)nc3n2)c(C2CC2)c1` [Example 64, 3-cyclopropyl-2-(5-{[(2R)-2-hydroxypropyl]amino}-2H-pyrazolo[3,4-d][1,3]thiazol-2-yl)-5-methylphenol], the negative-log IC50 (pIC50) with NF-κB pathway is less than 5.00; against NLRP3 inflammasome, 7.11.
Consider `Cc1cc(O)c(-n2cc3sc(N[C@@H]4C[C@@H](F)CN(C)C4)nc3n2)c(C2CC2)c1` [Example 65, 3-cyclopropyl-2-(5-{[(3R,5R)-5-fluoro-1-methylpiperidin-3-yl]amino}-2H-pyrazolo[3,4-d][1,3]thiazol-2-yl)-5-methylphenol], for which the negative-log IC50 (pIC50) was less than 4.52 in the assay on NF-κB pathway and 8.08 against NLRP3 inflammasome.
Turning to `Cc1cc(C)c(-n2cc3sc(NCC(C)(C)O)nc3n2)c(O)c1` [Example 66, 2-{5-[(2-hydroxy-2-methylpropyl)amino]-2H-pyrazolo[3,4-d][1,3]thiazol-2-yl}-3,5-dimethylphenol], the figures for the pIC50 in the assay with NF-κB pathway and at NLRP3 inflammasome were less than 4.52 and 6.60, respectively.
On to `Cc1cc(C)c(-n2cc3sc(N[C@@H]4CCN(CC(F)F)C4)nc3n2)c(O)c1` [Example 67, 2-(5-{[1-(2,2-difluoroethyl)pyrrolidin-3-yl]amino}-2H-pyrazolo[3,4-d][1,3]thiazol-2-yl)-3,5-dimethylphenol], for which the values for the negative logarithm of the IC50 (pIC50) in the assay with NF-κB pathway and against NLRP3 inflammasome were less than 4.52 and 6.02, respectively.
As for `Cc1cc(C)c(-n2cc3sc(NC4CCN(C(=O)CC(F)F)C4)nc3n2)c(O)c1` (stereo not shown) [Example 68, 3,3-difluoro-1-(3-{[2-(2-hydroxy-4,6-dimethylphenyl)-2H-pyrazolo[3,4-d][1,3]thiazol-5-yl]amino}pyrrolidin-1-yl)propan-1-one], the pIC50 was less than 5.00 in the assay with NF-κB pathway and 6.66 against NLRP3 inflammasome.
For `Cc1cc(C)c(-n2cc3sc(NC4CCN(C(=O)OCC(Cl)(Cl)Cl)C4)nc3n2)c(O)c1` (stereo not shown) [Example 69, 2,2,2-trichloroethyl 3-{[2-(2-hydroxy-4,6-dimethylphenyl)-2H-pyrazolo[3,4-d][1,3]thiazol-5-yl]amino}pyrrolidine-1-carboxylate], in that order: less than 5.00 and 6.60.
The like results for `Cc1cc(C)c(-n2nc3nc(N[C@@H]4C[C@@H](F)CN(C)C4)sc3c2C)c(O)c1` [Example 70, 2-(5-{[(3R,5R)-5-fluoro-1-methylpiperidin-3-yl]amino}-3-methyl-2H-pyrazolo[3,4-d][1,3]thiazol-2-yl)-3,5-dimethylphenol] were, in that order, less than 4.52 and 7.23.
For `CN1C[C@H](F)C[C@@H](Nc2nc3nn(-c4c(O)cc(Cl)cc4C(F)F)cc3s2)C1` [Example 75, 5-chloro-3-(difluoromethyl)-2-(5-{[(3R,5R)-5-fluoro-1-methylpiperidin-3-yl]amino}-2H-pyrazolo [3,4-d][1,3]thiazol-2-yl)phenol], in that order: less than 4.52 and 7.80.
As for `CO[C@@H]1C[C@@H](Nc2nc3nn(-c4c(C)cc(C)cc4O)cc3s2)CN(C)C1` [Example 76], the pIC50 is less than 4.52 in the assay on NF-κB pathway and 5.80 against NLRP3 inflammasome.
Take `Cc1cc(C)c(-n2cc3sc(NC4CCN(C(=O)OCc5ccccc5)C4)nc3n2)c(O)c1` (stereo not shown) [Example 77, benzyl 3-{[2-(2-hydroxy-4,6-dimethylphenyl)-2H-pyrazolo[3,4-d][1,3]thiazol-5-yl]amino}pyrrolidine-1-carboxylate]: the values for the negative logarithm of the IC50 (pIC50) in the assay with NF-κB pathway and at NLRP3 inflammasome were less than 5.00 and 6.33, respectively.
On to `CCN1C[C@H](F)C[C@@H](Nc2nc3nn(-c4c(O)cc(Cl)cc4C(F)F)cc3s2)C1` [Example 78, 5-chloro-3-(difluoromethyl)-2-(5-{[(3R,5R)-1-ethyl-5-fluoropiperidin-3-yl]amino}-2H-pyrazolo[3,4-d][1,3]thiazol-2-yl)phenol], for which the values for the negative-log IC50 (pIC50) with NF-κB pathway and at NLRP3 inflammasome were less than 5.00 and 8.37, respectively.
For `Cc1cc(C)c(-n2cc3sc(N[C@@H]4CN(C)C[C@H]4F)nc3n2)c(O)c1` [Example 79, 2-(5-{[(3R,4R)-4-fluoro-1-methylpyrrolidin-3-yl]amino}-2H-pyrazolo[3,4-d][1,3]thiazol-2-yl)-3,5-dimethylphenol], in that order: less than 4.52 and 5.96.
`Cc1cc(C)c(-n2cc3sc(N[C@H]4CN(C)C[C@@H]4F)nc3n2)c(O)c1` [Example 80, 2-(5-{[(3S,4S)-4-fluoro-1-methylpyrrolidin-3-yl]amino}-2H-pyrazolo[3,4-d][1,3]thiazol-2-yl)-3,5-dimethylphenol]: the pIC50 in the assay on NF-κB pathway is less than 4.52; on NLRP3 inflammasome, 7.43.
`Cc1cc(C)c(-n2cc3sc(NC4CCN(C)CC4)nc3n2)c(O)c1` [Example 81, 3,5-dimethyl-2-{5-[(1-methylpiperidin-4-yl)amino]-2H-pyrazolo[3,4-d][1,3]thiazol-2-yl}phenol]: the negative logarithm of the IC50 (pIC50) in the assay on NF-κB pathway is less than 4.52; against NLRP3 inflammasome it was 5.51.
Regarding `Cc1cc(Cl)cc(O)c1-n1cc2c(nc(N[C@@H]3C[C@@H](F)CN(C)C3)n2C)n1` [Example 82, 5-chloro-2-[5-{[(3R,5R)-5-fluoro-1-methylpiperidin-3-yl]amino}-4-methylimidazo[4,5-c]pyrazol-2(4H)-yl]-3-methylphenol], the pIC50 in the assay with NF-κB pathway is less than 4.52; against NLRP3 inflammasome, 7.31.
The like results for `CCC(O)CNc1nc2nn(-c3c(C)cc(C)cc3O)cc2s1` (stereo not shown) [Example 83, 2-{5-[(2-hydroxybutyl)amino]-2H-pyrazolo[3,4-d][1,3]thiazol-2-yl}-3,5-dimethylphenol] were, in that order, less than 4.52 and 6.09.
With `Cc1cc(C)c(-n2cc3sc(NCC4(O)CC4)nc3n2)c(O)c1` [Example 84, 2-(5-{[(1-hydroxycyclopropyl)methyl]amino}-2H-pyrazolo[3,4-d][1,3]thiazol-2-yl)-3,5-dimethylphenol], the negative logarithm of the IC50 (pIC50) in the assay with NF-κB pathway is less than 4.52; against NLRP3 inflammasome it was 6.42.
As to `CC(=O)N1CCC(Nc2nc3nn(-c4c(C)cc(C)cc4O)cc3s2)C1` (stereo not shown) [Example 85, 1-(3-{[2-(2-hydroxy-4,6-dimethylphenyl)-2H-pyrazolo[3,4-d][1,3]thiazol-5-yl]amino}pyrrolidin-1-yl)ethan-1-one], the figures for the pIC50 in the assay on NF-κB pathway and at NLRP3 inflammasome were less than 4.52 and 6.46, respectively.
